Legend:
[1] = tested on: MiaPaCa-2 (pancreatic cancer) cells; assay: Cell proliferation study in MiaPaCa-2 cells; type: cell-based
Method: (§1) Cell Culture and drug treatment: Human lung adenocarcinoma cell line NCI-H441 (ATCC Number: HTB-174) was obtained from the American Type Culture Collection (Manassas, Va.). H441 cells were maintained at 37° C. with 5% CO2 in McCoy's 5A Medium (Invitrogen, Carlsbad, Calif.) supplemented with 5% heat-inactivated fetal bovine serum (FBS). All media contained gentamicin at 50 μg/ml (GIBCO Laboratories, Grand Island, N.Y.). Other cells lines (PANC-1, MiaPaCa-2 and PC-3) were also similarly maintained, except that the cell culture medium was RPMI 1640 instead of McCoy's.
(§2) To evaluate the anti-proliferative activity of synthesized bis(2-fluorobenzylidene)-4-piperidone and its derivatives, the cells were seeded in 96-well flat-bottom tissue culture plates at a density of 10×10^3 cells per well. The cells were allowed to attach and grow overnight. The test compounds were solubilized in dimethyl sulfoxide (DMSO), filtered through 0.2 μm nylon filter and added to cells at 1, 10, 25 and 100 μM concentrations in culture medium supplemented with 5% FBS. […]
(§3) Cell Proliferation: The total number of cells after the treatment period was estimated by the hexosaminidase assay. […] The absorbance was measured at 405 nm. […] The data were analyzed as percent of control, where the control wells were treated with equivalent amounts of DMSO alone, and the analyzed data was presented as average±standard error of mean. […]

[2] = tested on: PANC-1 (pancreatic cancer) cells; assay: Cell proliferation study in PANC-1 cells; type: cell-based
Method: as §1, §2, §3

[3] = tested on: colon (HCT-116) cancer cells; assay: Proliferation of colon cancer HCT-116 cells; type: cell-based
H441 cells [4] = assay: Transmission electron microscopy of treated H441 cells (autophagy); type: cell-based, human; settings: 24 hour treatment, 1 and 10 μM
Method: Transmission Electron Microscopy (TEM): TEM was performed after 24 hour treatment with 1 and 10 μM of compound 1 or compound 29 (CLEFMA). The cells were fixed in 0.1M sodium cacodylate buffer containing 4% paraformaldehyde (PFA) and 2% glutaraldehyde for 4 h at room temperature. The samples were post-fixed in 1% osmium tetroxide for 1.5 h and washed with 0.1M sodium cacodylate buffer, followed by dehydration in an ethanol series of 50%, 60%, 75%, 85%, and 95% for 15 minutes each. The cells were washed twice in 100% Ethanol and passed through a series of epon-araldite (6.2 g epon+4.4 g araldite+12.4 g of dodecenyl succinic anhydride+0.8 g N,N-dimethylbenzylamine) solution in ethanol, [Matsko et al., 2005] before embedding the cells in epon-araldite resin. Finally, 100 nm sections were cut using a microtome, and the sections were placed on glow-discharged 300 mesh Copper grids. The ultrasections were stained with Sato's lead (mixture of calcinated lead citrate, lead nitrate, lead acetate and sodium citrate), and observed by a Hitachi H-7600 Transmission Electron Microscope at 2500× (Oklahoma Medical Research Foundation Imaging and core facility, Oklahoma City).

H441 cells [5] = assay: Monodansylcadaverine fluorescence microscopy of autophagosomes in H441 cells; type: cell-based, human
Method: Monodansylcadaverine (MDC) is an autofluorescent marker for autophagic vacuoles. [Biederbick et al., 1995] It was found the emergence of intense MDC-fluorescence in the treated cells. The fluorescence vanished when the cells were treated with 3-methyl adenine (3-MA). […] [Seglen et al., 1982]

[6] = Phase solubility analysis with HPβCD; type: physicochemical
Method: CLEFMA was synthesized and characterized according to the methods described in Example 1. A phase solubility analysis of CLEFMA was performed according to the published method [Higuchi et al., 1965], and ICs of CLEFMA with HPβCD in the solution phase were prepared as reported previously [Agashe et al., 2010]. Briefly, an excess of CLEFMA was added to 5 ml of HPβCD solution (1 g/ml). The mixture was continuously agitated on a shaker incubator at 25° C. for 72 h. After allowing settling of coarse particulate matter for 6 h, the supernatant was centrifuged at 14,000 rpm for 15 min to obtain a clear supernatant free of any insoluble material. The solution was passed through a sterile 0.22 μm cellulose acetate filter, and the amount of HPβCD-solubilized CLEFMA was estimated spectrophotometrically at 320 nm. The phase solubility diagram was constructed by plotting the estimated CLEFMA concentration against HPβCD concentrations. The stability constant was calculated from the phase diagram using the following equation— K1:1=Slope/[S0(1−Slope)], where S0 is CLEFMA solubility in the absence of HPβCD
The complexation efficiency (CE) was calculated as a product of S0 and K1:1

H441 cells [7] = assay: MitoSOX Red mitochondrial superoxide imaging / flow cytometry; type: cell-based, human; settings: 0-20 μM, 12-48 h
Method: MitoSOX Red mitochondrial superoxide imaging: Cells were grown to 70% confluency in 24-well tissue culture plates and treated with CLEFMA (0-20 μM) for 12-48 h; treatment with hydrogen peroxide (H2O2, 10 μM) served as a positive control. At the end of the incubation period, both the non-adherent and adherent cells were incubated with 5 μM MitoSOX Red solution (Invitrogen, Carlsbad, Calif.) for 30 min at 37° C. For flow cytometric analysis, the MitoSOX-loaded cells were trypsinized and collected in HBSS (with Ca/Mg) containing 1% BSA and suspended at a density of 1−2×10^7 cells/ml. Approximately 5-10 million cells were aliquoted into a binding buffer and run through an automated dual-laser-excited FACS Calibur (Flow and Imaging Core Facility, OUHSC, Oklahoma City) measuring at 488 nm excitation wavelength. The data were collected at the FSC, FL2 and FL3 channels for at least 10,000 events, and the histogram and dot-plot charts were obtained and analyzed using Summit V4.3 software (Dako Colorado Inc, Carpinteria, Calif.). For microscopy, the MitoSOX-loaded cells were counterstained with 1 μg/ml Hoechst 33342 dye (Molecular Probes, Carlsbad, Calif.). […]

O=C(O)C=CC(=O)N1CC(=Cc2ccccc2Cl)C(=O)C(=Cc2ccccc2Cl)C1 [Compound 29, 4-[3,5-Bis-(2-chlorobenzylidene)-4-oxo-piperidin-1-yl]-4-oxo-2-butenoic acid]
potency of antiproliferative action [1]: enhanced the potency of antiproliferative action
potency of antiproliferative action [2]: enhanced the potency of antiproliferative action
control of proliferation [3]: equally potent in controlling proliferation
change in cellular architecture (TEM) (H441 cells [4]): induced a substantial change in cellular architecture
autophagosome formation (MDC fluorescence) (H441 cells [5]): appearance of intracellular vacuoles or autophagosomes
stability constant of the complex with HPβCD ([6]; 25° C.): 0.0126 M⁻¹
complexation efficiency ([6]; product of S0 and K1:1): approximately 0.57
mitochondrial ROS production (MitoSOX) (H441 cells [7]): time- and dose dependent increase in mitochondrial ROS production
